Where “and” joins values, the source holds several entries; their conditions need not be identical. Equal values may be shown once.
Tested on: MALME-3M multicell spheroids, viability
Assay: Anticancer human tumor MALME-3M cell line growth inhibition [TAK];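 also: spheroids exposed to drugs for seven days before readout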;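 as to viability, T/C: 100% = DMSO vehicle control viability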
Conditions: for viability, T/C: stronger effect = lower value
From the text: Combinatorial screen of targeted agents with TAK-243 and ipatasertib in multi-cell type tumor spheroids
A high-throughput screen of multi-cell type tumor spheroids was designed to identify active combinations of targeted small molecules and TAK-243 or ipatasertib. Complex spheroids include a stromal component modeled by human endothelial cells (HUVEC) and fibroblasts modeled by human mesenchymal stem cells (MSCs). The concentration ranges selected for each drug and investigational agent were based upon clinically achievable concentrations if the clinical Cmax of the agent was known.
Compounds. The drugs and investigational agents: TAK-243 (785004), ipatasertib (767898), everolimus (733504), selumetinib (741078), bortezomib (756655), trametinib (758246), ixazomib (758254), vemurafenib (761431), dabrafenib (764134), sapanisertib (764658), alpelisib (765974), and copanlisib (816437), were obtained from the National Cancer Institute (NCI) Developmental Therapeutics Program Chemical Repository. The FDA-approved anticancer drug set is available from the NCI Developmental Therapeutics Program. […] The stock solutions were prepared in dimethyl sulfoxide (DMSO, Sigma-Aldrich, St. Louis, MO, cat. D2650) at 800-fold the tested concentration and stored at -70 degrees C prior to their use. All drugs and investigational agents were tested over a range starting from a high concentration at or near the clinical Cmax and decreasing in half-log increments. If the clinical Cmax for an agent had not been determined, the highest concentration tested was 10 microM.
NCI60 Cell Culture. NCI60 cell lines were obtained from the NCI Developmental Therapeutics Program Tumor Repository. For each lot of cells, the Repository performed Applied Biosystems AmpFLSTR Identifiler testing with PCR amplification to confirm consistency with the published Identifier STR profile for each cell line. Cells were kept in continuous culture for no more than 20 passages. The optimal seeding densities for each of the cell lines at each time point assessed were determined prior to performing the concentration response studies. Briefly, the NCI60 human tumor lines were grown as monolayers in RPMI 1640 medium supplemented with 10% FBS and 2 mmol/L L-glutamine.
An additional 2 lines were from the NCI60 cell line panel including melanomas, MALME-3M and SK-MEL-2. Pooled donor human umbilical vein endothelial cells (HUVEC, Lonza, cat. CC-2519) and human mesenchymal stem cells (hMSC, Lonza, cat. PT-2501) were purchased from Lonza (Walkersville, MD).
PDMR cell lines were grown in complete medium (DC medium): Dulbecco's modified Eagle's medium (DMEM)/F12 supplemented with 5% fetal bovine serum (FBS), 2 mM L-glutamine, 100 U/mL penicillin and 100 µg/ml streptomycin, 0.4 µg/ml hydrocortisone, 10 ng/ml epidermal growth factor (EGF) recombinant human protein, 24 µg/mL adenine, and 0.1 mg/mL primocin. During culture from frozen stock vials, PDMR cells were cultured in the same medium containing 10 µM Y-27632 (see Table 3). The PDCs were cultured in complete DMEM/F12 media without 10 microM Y-27632 dihydrochloride for at least two passages prior to the screen. The pooled donor HUVEC and hMSC were cultured in endothelial cell growth medium 2 (PromoCell, Heidelberg, Germany, cat. C-22011) and mesenchymal stem cell growth medium 2 (PromoCell, cat. C-28009), respectively. For all experiments, HUVEC and hMSC were used at passages </=5.
For the pre-screen, cell seeding densities were determined from a titration spanning the range from 5,000 to 313 cells per well. The mct-spheroids including 60% malignant cells, 25% HUVEC and 15% MSC dispensed as a mixture into U-bottom Ultra-Low Attachment 384-well plates (Corning, NY)
High-throughput Drug Combination Screening.
Prior to their inoculation into 384-well plates, malignant cells, HUVEC, and hMSC were removed from T flasks using TrypLE express (Thermo Fisher Scientific, cat. 12605036) and harvested by centrifugation for 5 min at 233 x g. […]

[1] = curve of first compound, second compound 0.3 µM
[2] = curve of first compound, second compound 0.949 µM
[3] = curve of first compound, second compound 3 µM
[4] = curve of first compound, second compound 9.49 µM
[5] = curve of first compound, second compound 30 µM
[6] = second compound 0.3 µM, first compound 0.316 µM
[7] = second compound 0.3 µM, first compound 1 µM
[8] = second compound 0.3 µM, first compound 3.16 µM
[9] = second compound 0.3 µM, first compound 10 µM
[10] = second compound 0.949 µM, first compound 0.316 µM
[11] = second compound 0.949 µM, first compound 1 µM
[12] = second compound 0.949 µM, first compound 3.16 µM
[13] = second compound 0.949 µM, first compound 10 µM
[14] = second compound 3 µM, first compound 0.316 µM
[15] = second compound 3 µM, first compound 1 µM
[16] = second compound 3 µM, first compound 3.16 µM
[17] = second compound 3 µM, first compound 10 µM
[18] = second compound 9.49 µM, first compound 0.316 µM
[19] = second compound 9.49 µM, first compound 1 µM
[20] = second compound 9.49 µM, first compound 3.16 µM
[21] = second compound 9.49 µM, first compound 10 µM
[22] = second compound 30 µM, first compound 0.316 µM
[23] = second compound 30 µM, first compound 1 µM
[24] = second compound 30 µM, first compound 3.16 µM
[25] = second compound 30 µM, first compound 10 µM

`CC(C)(C)c1nc(-c2cccc(NS(=O)(=O)c3c(F)cccc3F)c2F)c(-c2ccnc(N)n2)s1` + CC(C)NCC(C(=O)N1CCN(c2ncnc3c2C(C)CC3O)CC1)c1ccc(Cl)cc1 showed an IC50 [1] of under 31.6 nM, an IC50 [2] of under 31.6 nM and an IC50 [3] of under 31.6 nM. It also gave an IC50 [4] of under 31.6 nM, an IC50 [5] of under 31.6 nM and a viability, T/C (second compound 0.3 µM, first compound 0.0316 µM) of 26.6%. It also gave a viability, T/C (second compound 0.3 µM, first compound 0.1 µM) of 23.6%, a viability, T/C [6] of 25% and a viability, T/C [7] of 25.8%. It also gave a viability, T/C [8] of 22.2%, a viability, T/C [9] of 29.6% and a viability, T/C (second compound 0.949 µM, first compound 0.0316 µM) of 27.1%. The viability, T/C (second compound 0.949 µM, first compound 0.1 µM) was 26.2%, the viability, T/C [10] was 23.2% and the viability, T/C [11] was 24.8%. For the same compound, the viability, T/C [12] was 20.6%, the viability, T/C [13] was 26.2% and the viability, T/C (second compound 3 µM, first compound 0.0316 µM) was 25.4%. The viability, T/C (second compound 3 µM, first compound 0.1 µM) was 26.8%, the viability, T/C [14] was 21.3% and the viability, T/C [15] was 20.1%. The viability, T/C [16] was 15.4%, the viability, T/C [17] was 21.5% and the viability, T/C (second compound 9.49 µM, first compound 0.0316 µM) was 23%. It also gave a viability, T/C (second compound 9.49 µM, first compound 0.1 µM) of 21%, a viability, T/C [18] of 19.5% and a viability, T/C [19] of 15.6%. For the same compound, the viability, T/C [20] was 14.1%, the viability, T/C [21] was 17.1% and the viability, T/C (second compound 30 µM, first compound 0.0316 µM) was 17.1%. It also gave a viability, T/C (second compound 30 µM, first compound 0.1 µM) of 18.4%, a viability, T/C [22] of 18.5% and a viability, T/C [23] of 11.4%. It also gave a viability, T/C [24] of 8.12% and a viability, T/C [25] of 11.6%.
With `CC(C)CC(NC(=O)CNC(=O)c1cc(Cl)ccc1Cl)B1OC(=O)CC(CC(=O)O)(C(=O)O)O1` (configuration not stated) the viability, T/C (compound 0.000316 µM) was 89.2% and 116%, the viability, T/C (compound 0.001 µM) was 86.8% and 91.6% and the viability, T/C (compound 0.00316 µM) was 88.2% and 98.5%. For the same compound, the viability, T/C (compound 0.01 µM) was 88.2% and 96%, the viability, T/C (compound 0.0316 µM) was 7.17% and 7.01% and the viability, T/C (compound 0.1 µM) was 0.41% and 1.22%. The IC50 (curve of compound) was 17.2 nM and 18.1 nM.
For `CCCS(=O)(=O)Nc1ccc(F)c(C(=O)c2c[nH]c3ncc(-c4ccc(Cl)cc4)cc23)c1F` + CC(C)NCC(C(=O)N1CCN(c2ncnc3c2C(C)CC3O)CC1)c1ccc(Cl)cc1, the IC50 [1] was under 316 nM, the IC50 [2] was under 316 nM and the IC50 [3] was under 316 nM. It also gave an IC50 [4] of under 316 nM, an IC50 [5] of under 316 nM and a viability, T/C [6] of 29.3%. For the same compound, the viability, T/C [7] was 21.5%, the viability, T/C [8] was 23.6% and the viability, T/C [9] was 19.3%. For the same compound, the viability, T/C (second compound 0.3 µM, first compound 31.6 µM) was 0.51%, the viability, T/C (second compound 0.3 µM, first compound 100 µM) was 11.1% and the viability, T/C [10] was 31.8%. For the same compound, the viability, T/C [11] was 25.8%, the viability, T/C [12] was 23.6% and the viability, T/C [13] was 22.1%. It also gave a viability, T/C (second compound 0.949 µM, first compound 31.6 µM) of 2.72%, a viability, T/C (second compound 0.949 µM, first compound 100 µM) of 12.1% and a viability, T/C [14] of 30%. The viability, T/C [15] was 24.9%, the viability, T/C [16] was 21.4% and the viability, T/C [17] was 15.9%. The viability, T/C (second compound 3 µM, first compound 31.6 µM) was 1.69%, the viability, T/C (second compound 3 µM, first compound 100 µM) was 3.88% and the viability, T/C [18] was 24.8%. It also gave a viability, T/C [19] of 20.6%, a viability, T/C [20] of 17.9% and a viability, T/C [21] of 10.8%. The viability, T/C (second compound 9.49 µM, first compound 31.6 µM) was 0.89%, the viability, T/C (second compound 9.49 µM, first compound 100 µM) was 1.65% and the viability, T/C [22] was 15.1%. The viability, T/C [23] was 16.4%, the viability, T/C [24] was 9.92% and the viability, T/C [25] was 0.89%. For the same compound, the viability, T/C (second compound 30 µM, first compound 31.6 µM) was 0.35% and the viability, T/C (second compound 30 µM, first compound 100 µM) was 0.54%.

Source: PubChem BioAssay AID2060345 (Molecular Pharmacology Branch, DTP, NCI, 2025)
